Experimental data: patent US20250154169A1, “COMPOUNDS AND METHODS FOR MODULATING SPLICING” (REMIX THERAPEUTICS INC., priority 2021, published 2025)
Structures can show the parent of a compound that is named as a salt. Where two headings read alike, the source gives them in different places.

What was measured:
Assay type in all cases: cell-based, human
Target C mRNA = assay: Splicing RT-qPCR gene panel, Target C canonical junction (CJ) mRNA; details: Tables 4A/4B, read-out: Target C (IC50, decrease in CJ mRNA, gene panel)
Method: (§1) Compounds described herein were used to modulate RNA transcript abundance in cells. The expression of a target mRNA was measured by detecting the formation of an exon-exon junction in the canonical transcript (CJ). A compound mediated exon-inclusion event was detected by observing an increase in formation of a new junction with an alternative exon (AJ). Real-time qPCR assays were used to detect these splicing switches and interrogate the potency of various compounds towards different target genes. A high-throughput real time quantitative PCR (RT-qPCR) assay was developed to measure these two isoforms of the mRNA (CJ and AJ) for exemplary genes, such as HTT, SMN2, and MYB, together with a control housekeeping gene, GAPDH or GUSB or PPIA, used for normalization. Briefly, the A673 or K562 cell line was treated with various compounds described herein (e.g., compounds of Formula (I)). After treatment, the levels of the HTT, MYB, or SMN2 mRNA targets were determined from each sample of cell lysate by cDNA synthesis followed by qPCR.
(§2) The A673 cell line was cultured in DMEM with 10% FBS. Cells were diluted with full growth media and plated in a 96-well plate (15,000 cells in 100 ul media per well). The plate was incubated at 37° C. with 5% CO2 for 24 hours to allow cells to adhere. An 11-point 3-fold serial dilution of the compounds was made in DMSO then diluted in media in an intermediate plate. Compounds were transferred from the intermediate plate to the cell plate with the top dose at a final concentration of 10 uM in the well. Final DMSO concentration was kept at or below 0.25%. The cell plate was returned to the incubator at 37° C. with 5% CO2 for an additional 24 hours.
(§3) The K562 cell line was cultured in IMDM with 10% FBS. For K562, cells were diluted with full growth media and plated in either a 96-well plate (50,000 cells in 50 uL media per well) or a 384-well plate (8,000-40,000 cells in 45 uL media per well). An 11-point 3-fold serial dilution of the compounds were made in DMSO then diluted in media in an intermediate plate. Compound was transferred from the intermediate plate to the cell plate with the top dose at a final concentration of 10 uM in the well. Final DMSO concentration was kept at or below 0.25%. Final volume was 100 uL for 96-well plate and 50 uL for 384-well plate. The cell plate was then placed in an incubator at 37° C. with 5% CO2 for 24 hours.
(§4) The cells were then gently washed with 50 uL-100 uL cold PBS before proceeding to addition of lysis buffer. 30 uL-50 uL of room temperature lysis buffer with DNAse I (and optionally RNAsin) was added to each well. Cells were shaken/mixed thoroughly at room temperature for 5-10 minutes for lysis to take place and then 3 uL-5 uL of room temperature stop solution was added and wells were shaken/mixed again. After 2-5 minutes, the cell lysate plate was transferred to ice for RT-qPCR reaction setup. The lysates could also be frozen at −80° C. for later use.
(§5) In some cases, a direct lysis buffer was used. An appropriate volume of 3× lysis buffer (10 mM Tris, 150 mM NaCl, 1.5%-2.5% Igepal and 0.1-1 U/uL RNAsin, pH 7.4) was directly added to either K562 or A673 cells in media and mixed by pipetting 3 times. The plates were then incubated at room temperature with shaking/rocking for 20-50 minutes to allow for lysis to take place. After this time, the cell lysate plate was transferred to ice to set up for the RT-qPCR reactions. The lysates could also be frozen at −80° C. for later use.
(§6) To set up 10 uL RT-qPCR reactions, cell lysates were transferred to 384-well qPCR plates containing the master mix according to the table below. The plates were sealed, gently vortexed, and spun down before the run. The volumes were adjusted accordingly in some instances where the reaction was carried in 20 μL. The table below summarizes the components of the RT-qPCR reactions:
(§7) The RT-qPCR reaction was performed using a QuantStudio (ThermoFisher) under the following fast cycling conditions. […]

HTT mRNA [1] = assay: Splicing RT-qPCR assay, HTT canonical (CJ) and alternative (AJ) junction mRNA; details: Homo sapiens
Method in brief: (§8)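 A673 or K562 cells were treated 24 h at 37 °C with an 11-point 3-fold compound dilution series (top 10 uM, DMSO ≤0.25%). Lysates went to one-step RT-qPCR measuring canonical (CJ) and alternative-exon (AJ) junction transcripts, normalized to GAPDH, GUSB or PPIA.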

SMN2 mRNA = assay: Splicing RT-qPCR gene panel, SMN2 canonical junction (CJ) mRNA; details: Tables 4A/4B, read-out: SMN2 (IC50, decrease in CJ mRNA, gene panel)
Method: as §1, §2, §3, §4, §5, §6, §7

MYB mRNA = assay: Splicing RT-qPCR assay, MYB canonical (CJ) and alternative (AJ) junction mRNA
Method in brief: as §8

HTT mRNA [2] = assay: Splicing RT-qPCR gene panel, HTT canonical junction (CJ) mRNA; details: Tables 4A/4B, read-out: HTT (IC50, decrease in CJ mRNA, gene panel)
Method: as §1, §2, §3, §4, §5, §6, §7

[3] = 24 h, A673 or K562 cells, 24 hours compound treatment, read-out: HTT CJ (IC50, decrease in canonical junction mRNA)
[4] = A673 or K562 cells, 24 hours compound treatment, read-out: HTT AJ (AC50, increase in alternative junction mRNA)
[5] = Homo sapiens, 24 h, A673 or K562 cells, 24 hours compound treatment, RT-qPCR, read-out: MYB AJ (AC50, increase in alternative junction mRNA)
[6] = Homo sapiens, 24 h, A673 or K562 cells, 24 hours compound treatment, RT-qPCR, read-out: MYB CJ (IC50, decrease in canonical junction mRNA)
[7] = Homo sapiens, Tables 4A/4B, canonical junction qPCR panel, read-out: MYB (IC50, decrease in CJ mRNA, gene panel)

Structure (SMILES) | IC50 (Target C mRNA; Homo sapiens) [nM] | IC50 (SMN2 mRNA; Homo sapiens) [nM] | IC50 (MYB mRNA; [7]) [nM] | IC50 (HTT mRNA [2]; Homo sapiens) [nM] | further results
Cc1cn2cc(NC(=O)c3ccc(N(C)C4CC(C)(C)NC(C)(C)C4)c4cc(C)oc34)cc(F)c2n1 [Compound 201] | > 10000 | 1000 to 10000 | > 10000 | > 10000 | IC50 (HTT mRNA [1]; [3]): > 10000 nM; AC50 (HTT mRNA [1]; [4]): > 10000 nM; AC50 (MYB mRNA; [5]): > 10000 nM; IC50 (MYB mRNA; [6]): > 10000 nM
Cc1cn2cc(NC(=O)c3ccc(N4C[C@@H](C)N[C@@H](C)C4)c4csnc34)cc(F)c2n1 [Compound 971] | 100 to 1000 | < 100 | < 100 | 100 to 1000 | AC50 (HTT mRNA [1]; Table 3B, alternative junction mRNA, read-out: HTT AJ (AC50, increase in AJ mRNA)): 100 to 1000 nM; IC50 (HTT mRNA [1]; Table 3B, canonical junction mRNA, read-out: HTT CJ (IC50, decrease in CJ mRNA)): 100 to 1000 nM; IC50 (MYB mRNA; Homo sapiens, Table 3B, canonical junction mRNA, RT-qPCR, read-out: MYB CJ (IC50, decrease in CJ mRNA)): < 100 nM; AC50 (MYB mRNA; Homo sapiens, Table 3B, alternative junction mRNA, RT-qPCR, read-out: MYB AJ (AC50, increase in AJ mRNA)): < 100 nM
COCCn1cc2c(N3CCNCC3)ccc(C(=O)Nc3cc(F)c4nc(C)cn4c3)c2n1 [Compound 292, N-{8-fluoro-2-methylimidazo[1,2-a]pyridin-6-yl}-2-(2-methoxyethyl)-4-(piperazin-1-yl)indazole-7-carboxamide hydrochloride] | 1000 to 10000 | < 100 | < 100 | 1000 to 10000 | IC50 (HTT mRNA [1]; [3]): 1000 to 10000 nM; AC50 (HTT mRNA [1]; [4]): 1000 to 10000 nM; AC50 (MYB mRNA; [5]): < 100 nM; IC50 (MYB mRNA; [6]): < 100 nM
Cc1cn2cc(NC(=O)c3ccc(N4CCNCC4)c4cn(C)nc34)cc(C#N)c2n1 [Compound 314, N-{8-cyano-2-methylimidazo[1,2-a]pyridin-6-yl}-2-methyl-4-(piperazin-1-yl) indazole-7-carboxamide hydrochloride] | > 10000 | < 100 | < 100 | 1000 to 10000 | IC50 (HTT mRNA [1]; [3]): 1000 to 10000 nM; AC50 (HTT mRNA [1]; [4]): 1000 to 10000 nM; AC50 (MYB mRNA; [5]): < 100 nM; IC50 (MYB mRNA; [6]): < 100 nM
CCn1cc2c(N3CCNCC3)ccc(C(=O)Nc3cc(Cl)c4nc(C)cn4c3)c2n1 [Compound 284] | 1000 to 10000 | < 100 | < 100 | 1000 to 10000 | 
CCNC1CCN(c2cc(F)c(C(=O)Nc3cn4cc(C)nc4c(F)c3OC)c3nn(C)cc23)CC1 [Compound 471] | < 100 | < 100 | < 100 | < 100 | 
Cc1cn2cc(NC(=O)c3ccc(N4CCC5(CC4)CCN5C)c4cn(C)nc34)cc(F)c2n1 [Compound 422, N-{8-fluoro-2-methylimidazo[1,2-a]pyridin-6-yl}-2-methyl-4-{1-methyl-1,7-diazaspiro[3.5]nonan-7-yl}indazole-7-carboxamide; bis(trifluoroacetic acid)] | 100 to 1000 | < 100 | < 100 | < 100 | 
Cc1cn2cc(NC(=O)c3ccc(N4CCNCC4)c4cn(C)nc34)cc(Cl)c2n1 [Compound 285] |  |  |  |  | IC50 (Target C mRNA): 100 to 1000 nM; IC50 (SMN2 mRNA): < 100 nM; IC50 (MYB mRNA; Tables 4A/4B, canonical junction qPCR panel, read-out: MYB (IC50, decrease in CJ mRNA, gene panel)): < 100 nM; IC50 (HTT mRNA [2]): 100 to 1000 nM
CCn1cc2c(N3CCNCC3)ccc(C(=O)Nc3cc(F)c4nc(C)cn4c3)c2n1 [Compound 288, 2-ethyl-N-{8-fluoro-2-methylimidazo[1,2-a]pyridin-6-yl}-4-(piperazin-1-yl)indazole-7-carboxamide] | 1000 to 10000 | < 100 | < 100 | 1000 to 10000 | 
Cc1cc2c(N3CCNCC3)ccc(C(=O)Nc3cc(F)c4nc(C)oc4c3)c2o1 [Compound 218] | 1000 to 10000 | < 100 | 100 to 1000 | 1000 to 10000 | 
Cc1cn2cc(NC(=O)c3ccc(C4C[C@@H](C)N[C@@H](C)C4)c4cn(C)nc34)cc(F)c2n1 (stereo partly shown) [Compound 211] | 1000 to 10000 | < 100 | 100 to 1000 | 1000 to 10000 | 
Cc1cn2cc(NC(=O)c3ccc(N4CCNC5(CC5)C4)c4cn(C)nc34)cc(F)c2n1 [Compound 241] | 1000 to 10000 | < 100 | 100 to 1000 | 100 to 1000 | 
Cc1cn2cc(NC(=O)c3ccc(N4CCN(C)CC4)c4cn(C)nc34)cc(F)c2n1 [Compound 207] | 1000 to 10000 | < 100 | < 100 | 100 to 1000 | 
Cc1cn2cc(NC(=O)c3ccc(N4CCNC(C)C4)c4cn(C)nc34)cc(Cl)c2n1 (stereo not shown) [Compound 277] | 1000 to 10000 | < 100 | < 100 | 100 to 1000 | 
Cc1cn2cc(NC(=O)c3ccc(N4CCNC(C)C4)c4cn(C)nc34)cc(F)c2n1 (stereo not shown) [Compound 228] | 100 to 1000 | < 100 | < 100 | 100 to 1000 | 
Cc1cn2cc(NC(=O)c3ccc(N4CCC(N(C)C)CC4)c4cn(C)nc34)cc(F)c2n1 [Compound 251] | 1000 to 10000 | < 100 | < 100 | 100 to 1000 | 
Cc1cn2cc(N(C)C(=O)c3ccc(N4CCNCC4)c4cn(C)nc34)cc(F)c2n1 [Compound 386, N-{8-fluoro-2-methylimidazo[1,2-a]pyridin-6-yl}-N,2-dimethyl-4-(piperazin-1-yl) indazole-7-carboxamide] | > 10000 | > 10000 | > 10000 | > 10000 | 
Cc1cn2cc(NC(=O)c3ccc(N4CC[C@H](NC5(CF)CC5)C4)c4cn(C)nc34)cc(F)c2n1 (single isomer, unassigned) [Compound 449] | > 10000 | < 100 | < 100 | 1000 to 10000 | 
Cc1nc2c(F)cc(NC(=O)c3ccc(N4CCNCC4)c4cn(C)nc34)cc2o1 [Compound 234] | 1000 to 10000 | < 100 | < 100 | 1000 to 10000 | 
Cc1cn2cc(NC(=O)c3ccc(N4C[C@H]5CC[C@@H](C4)N5)c4cn(C)nc34)cc(Cl)c2n1 [Compound 279] | 1000 to 10000 | < 100 | < 100 | 1000 to 10000 | 
CCOc1nc(NC(=O)c2ccc(N3CC[C@@H](NC)C3)c3cn(C)nc23)cn2cc(C)nc12 [Compound 433] | 1000 to 10000 | < 100 | 100 to 1000 | 1000 to 10000 | 
